PubChem BioAssay AID1963845 (Molecular Pharmacology Branch, DTP, NCI, 2024)
Where “and” joins values, the source holds several entries; their conditions need not be identical. Equal entries are not always repeated.

Test system: 429239-143-T-J1-PDC complex spheroid viability
Experiment: Anticancer human tumor 429239-143-T-J1-PDC patient-derived small cell lung carcinoma cell line growth inhibition [POLQ]
Details: for viability, T/C: stronger effect = lower value
Procedure: Multicellular complex tumor spheroid response to Polymerase (POL) inhibitors (novobiocin, ART-558, RP6685) in combination with a variety of drugs and investigational agents in selected tumor cell lines
The POL inhibitors (novobiocin, ART-558, and RP6685) were evaluated both individually and in combination with standard of care and investigational anticancer small molecules within a complex spheroid model of solid tumors. . Complex spheroids include a stromal component modeled by human endothelial cells (HUVEC) and fibroblasts modeled by human mesenchymal stem cells (MSCs). The concentration ranges selected for each drug and investigational agent were based upon clinically achievable concentrations if the clinical Cmax of the agent was known.
Compounds. The drugs and investigational agents: novobiocin (NSC847541), ART-558 (NSC835418), RP-6685 (NSC848927), peposertib (NSC802822), ceralasertib (NSC780249), elimusertib (NSC800525), camonsertib (NSC841442), AZD-1390 (NSC803789), olaparib (NSC753686), talazoparib (NSC767125), rucaparib (NSC756644), sotorasib (NSC818433), MRTX-1133 (NSC836407), SN-38 (NSC673596), topotecan (NSC609699), epotoside (NSC141540), doxorubicin (NSC123127), gemcitabine (NSC613327), 5-fluorouracil (NSC19893), paclitaxel (NSC125973), vemurafenib (NSC761431), MSA-2 (NSC828583), SN-011 (NSC837082), adavosertib (NSC754352), prexasertib (NSC758257), carboplatin (NSC241240) and oxaliplatin (NSC266046), were obtained from the National Cancer Institute (NCI) Developmental Therapeutics Program Chemical Repository (21). The FDA-approved anticancer drug set is available from the Developmental Therapeutics Program at https://dtp.cancer.gov/organization/dscb/obtaining/. […] The stock solutions were prepared in dimethyl sulfoxide (DMSO, Sigma-Aldrich, St. Louis, MO, cat. D2650), except for the platinum compounds which were prepared in saline (Quality Biological, Gaithersburg, MD, cat. 114-055-101), at 800-fold the tested concentration and stored at -70 degrees C prior to their use. All drugs and investigational agents were tested over a range starting from a high concentration at or near the clinical Cmax and decreasing in half-log increments. If the clinical Cmax for an agent had not been determined, the highest concentration tested was 10 microM, except for SN-38, which was tested at a high concentration of 1 microM.
Cell Culture. All cells were maintained in an incubator at 37 degrees C and 5% CO2 with 95% humidity. The PDC lines were cultured according to standard operating procedures established by the NCI PDMR (https://pdmr.cancer.gov). Table 3 of the manuscript, lists the cell lines along with the number of the three cell types plated to form the mct-spheroids and media for tumor cell growth. After thawing, all PDC lines, except 997537-175-T-J1-PDC and 415267-285-R-J2-PDC, were cultured in Matrigel-coated flasks prepared with a working solution of 1X Ham's F-12 nutrient mix, without supplementation (Thermo Fisher Scientific, cat. 11765054), 100 U/mL penicillin-streptomycin (Thermo Fisher Scientific, cat. 15140122), and 2.5% Matrigel (Corning Inc., Corning, NY, cat. 354248) for the first three passages. The two PDC lines 997537-175-T-J1-PDC and 415267-285-R-J2-PDC were cultured on uncoated flasks. The 857933-349-R-J2-PDC line was cultured in 6C/Colon 1B media containing advanced DMEM/F-12 (Thermo Fisher Scientific, cat. 12634028), 10 mM HEPES (Thermo Fisher Scientific, cat. 15630080), 1X GlutaMAX supplement (Thermo Fisher Scientific, cat. 35050061), 0.1 mg/mL primocin (InvivoGen, San Diego, CA, cat. ant-pm-2), 10% defined fetal bovine serum, heat inactivated (HyClone Laboratories Inc., Logan, UT, cat. SH30070.03HI), 50% L-WRN conditioned media (ATCC, cat. CRL-3276), 1.25 mM N-Acetyl-L-cysteine (Sigma-Aldrich, cat. A9165), 10 mM nicotinamide (Sigma-Aldrich, cat. N0636), 1X B-27 supplement (Thermo Fisher Scientific, cat. 17504044), 1X N-2 supplement (Thermo Fisher Scientific, cat. […]

[1] = curve of first compound, second compound 0.0316 µM
[2] = curve of first compound, second compound 0.1 µM
[3] = curve of first compound, second compound 0.316 µM
[4] = curve of first compound, second compound 1 µM
[5] = curve of first compound, second compound 3.16 µM
[6] = curve of first compound, second compound 10 µM
[7] = second compound 0.0316 µM, first compound 0.0316 µM
[8] = second compound 0.0316 µM, first compound 0.1 µM
[9] = second compound 0.0316 µM, first compound 0.316 µM
[10] = second compound 0.0316 µM, first compound 1 µM
[11] = second compound 0.0316 µM, first compound 3.16 µM
[12] = second compound 0.0316 µM, first compound 10 µM
[13] = second compound 0.1 µM, first compound 0.0316 µM
[14] = second compound 0.1 µM, first compound 0.1 µM
[15] = second compound 0.1 µM, first compound 0.316 µM
[16] = second compound 0.1 µM, first compound 1 µM
[17] = second compound 0.1 µM, first compound 3.16 µM
[18] = second compound 0.1 µM, first compound 10 µM
[19] = second compound 0.316 µM, first compound 0.0316 µM
[20] = second compound 0.316 µM, first compound 0.1 µM
[21] = second compound 0.316 µM, first compound 0.316 µM
[22] = second compound 0.316 µM, first compound 1 µM
[23] = second compound 0.316 µM, first compound 3.16 µM
[24] = second compound 0.316 µM, first compound 10 µM
[25] = second compound 1 µM, first compound 0.0316 µM
[26] = second compound 1 µM, first compound 0.1 µM
[27] = second compound 1 µM, first compound 0.316 µM
[28] = second compound 1 µM, first compound 1 µM
[29] = second compound 1 µM, first compound 3.16 µM
[30] = second compound 1 µM, first compound 10 µM
[31] = second compound 3.16 µM, first compound 0.0316 µM
[32] = second compound 3.16 µM, first compound 0.1 µM
[33] = second compound 3.16 µM, first compound 0.316 µM
[34] = second compound 3.16 µM, first compound 1 µM
[35] = second compound 3.16 µM, first compound 3.16 µM
[36] = second compound 3.16 µM, first compound 10 µM
[37] = second compound 10 µM, first compound 0.0316 µM
[38] = second compound 10 µM, first compound 0.1 µM
[39] = second compound 10 µM, first compound 0.316 µM
[40] = second compound 10 µM, first compound 1 µM
[41] = second compound 10 µM, first compound 3.16 µM
[42] = second compound 10 µM, first compound 10 µM
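Further: luminescence signal used as surrogate measure of viable cells; spheroids exposed to compounds for seven days before readout.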
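Wherever viability, T/C is given: 100% = DMSO vehicle control viability as luminescence relative to vehicle.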

## CNCc1ccc(-c2[nH]c3cc(F)cc4c3c2CCNC4=O)cc1 + Cc1cccc(N(C)C(=O)C2C(O)CCN2c2nc(C)cc(C(F)(F)F)c2C#N)c1
[1]
  IC50: 3.09 µM
[2]
  IC50: 2.6 µM
[3]
  IC50: 2.21 µM
[4]
  IC50: 2.22 µM
[5]
  IC50: 2.45 µM
[6]
  IC50: 3.24 µM
[7]
  viability, T/C: 113%
[8]
  viability, T/C: 83.8%
[9]
  viability, T/C: 85.1%
[10]
  viability, T/C: 75%
[11]
  viability, T/C: 51%
[12]
  viability, T/C: 21.1%
[13]
  viability, T/C: 90.9%
[14]
  viability, T/C: 92.7%
[15]
  viability, T/C: 79.4%
[16]
  viability, T/C: 66.2%
[17]
  viability, T/C: 47.5%
[18]
  viability, T/C: 19.7%
[19]
  viability, T/C: 97.8%
[20]
  viability, T/C: 94.7%
[21]
  viability, T/C: 75.8%
[22]
  viability, T/C: 70.7%
[23]
  viability, T/C: 40%
[24]
  viability, T/C: 22.7%
[25]
  viability, T/C: 86.7%
[26]
  viability, T/C: 82.3%
[27]
  viability, T/C: 72.3%
[28]
  viability, T/C: 66.2%
[29]
  viability, T/C: 42.4%
[30]
  viability, T/C: 24.4%
[31]
  viability, T/C: 91.3%
[32]
  viability, T/C: 84.9%
[33]
  viability, T/C: 95.5%
[34]
  viability, T/C: 62.9%
[35]
  viability, T/C: 47.8%
[36]
  viability, T/C: 22%
[37]
  viability, T/C: 80.3%
[38]
  viability, T/C: 91.4%
[39]
  viability, T/C: 83.8%
[40]
  viability, T/C: 61.8%
[41]
  viability, T/C: 54.2%
[42]
  viability, T/C: 23%

## COc1cc(C2c3cc4c(cc3C(OC3OC5COC(C)OC5C(O)C3O)C3COC(=O)C23)OCO4)cc(OC)c1O (stereo unspecified) + Cc1cccc(N(C)C(=O)C2C(O)CCN2c2nc(C)cc(C(F)(F)F)c2C#N)c1
[1]
  IC50: 0.377 µM
[2]
  IC50: 0.366 µM
[3]
  IC50: 0.501 µM
[4]
  IC50: 0.337 µM
[5]
  IC50: 0.226 µM
[6]
  IC50: 0.246 µM
[7]
  viability, T/C: 107%
[8]
  viability, T/C: 92.9%
[9]
  viability, T/C: 56.7%
[10]
  viability, T/C: 19.1%
[11]
  viability, T/C: 20.2%
[12]
  viability, T/C: 14.3%
[13]
  viability, T/C: 92.4%
[14]
  viability, T/C: 88%
[15]
  viability, T/C: 54.4%
[16]
  viability, T/C: 19.6%
[17]
  viability, T/C: 16.6%
[18]
  viability, T/C: 14.1%
[19]
  viability, T/C: 92.3%
[20]
  viability, T/C: 90.1%
[21]
  viability, T/C: 69.2%
[22]
  viability, T/C: 21.1%
[23]
  viability, T/C: 17.4%
[24]
  viability, T/C: 15.9%
[25]
  viability, T/C: 85.5%
[26]
  viability, T/C: 83.3%
[27]
  viability, T/C: 52%
[28]
  viability, T/C: 17.4%
[29]
  viability, T/C: 16.1%
[30]
  viability, T/C: 15.9%
[31]
  viability, T/C: 82.8%
[32]
  viability, T/C: 77.4%
[33]
  viability, T/C: 38.8%
[34]
  viability, T/C: 15.2%
[35]
  viability, T/C: 19.5%
[36]
  viability, T/C: 16.6%
[37]
  viability, T/C: 94.6%
[38]
  viability, T/C: 74.8%
[39]
  viability, T/C: 44.6%
[40]
  viability, T/C: 20.7%
[41]
  viability, T/C: 21.2%
[42]
  viability, T/C: 18.2%

## Nc1ccn(C2OC(CO)C(O)C2(F)F)c(=O)n1 (stereo unspecified)
Compound 0.0316 µM
  viability, T/C: 20% and 68.1% and 17.7%
Compound 0.1 µM
  viability, T/C: 18.2% and 6.89% and 16%
Compound 0.316 µM
  viability, T/C: 17.5% and 6.81% and 18.4%
Compound 1 µM
  viability, T/C: 19.9% and 6.79% and 18.6%
Compound 3.16 µM
  viability, T/C: 16.3% and 6.33% and 14.9%
Compound 10 µM
  viability, T/C: 15.8% and 5.46% and 15%
Curve of compound
  IC50: < 0.0316 µM and 0.0444 µM
